Legend:
human V2 receptor = human V2 receptor (Homo sapiens (Human), UniProt P30518); test: Cellular in vitro assay for determining vasopressin receptor activity (V2, CRE-luciferase); format: cell-based; settings: CHO cell line transfected with human V2 receptor; [Arg8]-vasopressin at EC50 concentration; read-out: IC50 hV2
human V1a receptor = human V1a receptor (Homo sapiens (Human), UniProt P37288); test: Cellular in vitro assay for determining vasopressin receptor activity (V1a, aequorin luminescence); format: cell-based; settings: for IC50: CHO cell line transfected with human V1a receptor, [Arg8]-vasopressin at EC50 concentration, read-out: IC50 hV1a; for ratio IC50 hV2/hV1a: selectivity, IC50 hV2 divided by IC50 hV1a
Chain of human V1a receptor (P37288 whole entry): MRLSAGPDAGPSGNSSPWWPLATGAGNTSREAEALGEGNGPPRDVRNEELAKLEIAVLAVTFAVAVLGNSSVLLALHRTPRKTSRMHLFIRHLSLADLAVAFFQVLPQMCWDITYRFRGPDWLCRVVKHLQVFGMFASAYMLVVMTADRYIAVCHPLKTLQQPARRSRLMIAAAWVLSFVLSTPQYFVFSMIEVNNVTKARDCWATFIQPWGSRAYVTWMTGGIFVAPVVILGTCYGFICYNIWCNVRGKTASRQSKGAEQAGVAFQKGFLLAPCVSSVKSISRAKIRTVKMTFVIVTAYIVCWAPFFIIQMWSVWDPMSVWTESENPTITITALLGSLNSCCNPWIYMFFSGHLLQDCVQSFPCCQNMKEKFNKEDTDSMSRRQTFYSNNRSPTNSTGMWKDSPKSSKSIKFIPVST

Chain of human V2 receptor (P30518 whole entry): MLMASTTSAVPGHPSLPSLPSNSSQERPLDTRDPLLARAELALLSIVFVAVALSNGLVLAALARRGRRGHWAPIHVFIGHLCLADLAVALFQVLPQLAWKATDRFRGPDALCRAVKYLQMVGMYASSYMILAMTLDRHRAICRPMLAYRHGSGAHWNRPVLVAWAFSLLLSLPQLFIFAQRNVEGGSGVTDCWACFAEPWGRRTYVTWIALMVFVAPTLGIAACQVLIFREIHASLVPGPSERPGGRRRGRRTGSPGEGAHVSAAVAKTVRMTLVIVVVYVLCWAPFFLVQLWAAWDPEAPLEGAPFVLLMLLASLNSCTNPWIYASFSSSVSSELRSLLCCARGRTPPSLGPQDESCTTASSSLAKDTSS

For `O=C1NCCC1C(=O)NC(Cn1c(-c2ccc(Cl)cc2)nn(Cc2ncn(-c3ncccc3Cl)n2)c1=O)C(F)(F)F` (stereo not drawn) [Example 51, N-{3-[3-(4-Chlorophenyl)-1-{[1-(3-chloropyridin-2-yl)-1H-1,2,4-triazol-3-yl]methyl}-5-oxo-1,5-dihydro-4H-1,2,4-triazol-4-yl]-1,1,1-trifluoropropan-2-yl}-2-oxopyrrolidine-3-carboxamide], the IC50 (human V2 receptor) was 167 nM, the IC50 (human V1a receptor) was 2.9 nM and the “ratio IC50 hV2/hV1a” value (human V1a receptor) was 57.6.
With `O=C(NC(Cn1c(-c2ccc(Cl)cc2)nn(Cc2ncn(-c3ncccc3Cl)n2)c1=O)C(F)(F)F)C1CC(F)(F)CN1` (stereo not drawn) [Example 53, N-{3-[3-(4-Chlorophenyl)-1-{[1-(3-chloropyridin-2-yl)-1H-1,2,4-triazol-3-yl]methyl}-5-oxo-1,5-dihydro-4H-1,2,4-triazol-4-yl]-1,1,1-trifluoropropan-2-yl}-4,4-difluoro-prolinamide] the IC50 (human V2 receptor) was 38 nM, the IC50 (human V1a receptor) was 1.6 nM and the “ratio IC50 hV2/hV1a” value (human V1a receptor) was 23.8.
In the case of `CC(C)(C)OC(=O)N1CC(F)(F)C1C(=O)NC(Cn1c(-c2ccc(Cl)cc2)nn(Cc2ncn(-c3ncccc3Cl)n2)c1=O)C(F)(F)F` (stereo not drawn) [Example 54, tert-Butyl 2-({3-[3-(4-chlorophenyl)-1-{[1-(3-chloropyridin-2-yl)-1H-1,2,4-triazol-3-yl]methyl}-5-oxo-1,5-dihydro-4H-1,2,4-triazol-4-yl]-1,1,1-trifluoropropan-2-yl}carbamoyl)-3,3-difluoro-azetidine-1-carboxylate], the IC50 (human V2 receptor) is reported as 165 nM, the IC50 (human V1a receptor) is reported as 3.9 nM and the “ratio IC50 hV2/hV1a” value (human V1a receptor) is reported as 42.3.
`O=C(NC(Cn1c(-c2ccc(Cl)cc2)nn(Cc2ncn(-c3ncccc3Cl)n2)c1=O)C(F)(F)F)C1NCC1(F)F` (stereo not drawn) [Example 55, N-{3-[3-(4-Chlorophenyl)-1-{[1-(3-chloropyridin-2-yl)-1H-1,2,4-triazol-3-yl]methyl}-5-oxo-1,5-dihydro-4H-1,2,4-triazol-4-yl]-1,1,1-trifluoropropan-2-yl}-3,3-difluoroazetidine-2-carboxamide] was tested, and the IC50 (human V2 receptor) was 106 nM, the IC50 (human V1a receptor) was 1.95 nM and the “ratio IC50 hV2/hV1a” value (human V1a receptor) was 54.4.
With `CC(C)(C)OC(=O)N1CCC1C(=O)NC(Cn1c(-c2ccc(Cl)cc2)nn(Cc2ncn(-c3ncccc3Cl)n2)c1=O)C(F)(F)F` (stereo not drawn) [Example 56, tert-Butyl 2-({3-[3-(4-chlorophenyl)-1-{[1-(3-chloropyridin-2-yl)-1H-1,2,4-triazol-3-yl]methyl}-5-oxo-1,5-dihydro-4H-1,2,4-triazol-4-yl]-1,1,1-trifluoropropan-2-yl}carbamoyl)azetidine-1-carboxylate] the IC50 (human V2 receptor) was 1030 nM, the IC50 (human V1a receptor) was 8.1 nM and the “ratio IC50 hV2/hV1a” value (human V1a receptor) was 126.8.
In the case of `O=C(NC(Cn1c(-c2ccc(Cl)cc2)nn(Cc2ncn(-c3ncccc3Cl)n2)c1=O)C(F)(F)F)C1CCN1` (stereo not drawn) [Example 57, N-{3-[3-(4-Chlorophenyl)-1-{[1-(3-chloropyridin-2-yl)-1H-1,2,4-triazol-3-yl]methyl}-5-oxo-1,5-dihydro-4H-1,2,4-triazol-4-yl]-1,1,1-trifluoropropan-2-yl}azetidine-2-carboxamide], the IC50 (human V2 receptor) is reported as 1980 nM, the IC50 (human V1a receptor) is reported as 31.5 nM and the “ratio IC50 hV2/hV1a” value (human V1a receptor) is reported as 62.8.
With `O=C(NC(Cn1c(-c2ccc(Cl)cc2)nn(Cc2ncn(-c3ncccc3C(F)(F)F)n2)c1=O)C(F)(F)F)C1CC1(F)F` (stereo not drawn) [Example 66, N-{3-[3-(4-Chlorophenyl)-5-oxo-1-({1-[3-(trifluoromethyl)pyridin-2-yl]-1H-1,2,4-triazol-3-yl}methyl)-1,5-dihydro-4H-1,2,4-triazol-4-yl]-1,1,1-trifluoropropan-2-yl}-2,2-difluorocyclopropane-1-carboxamide] the IC50 (human V2 receptor) was 245 nM, the IC50 (human V1a receptor) was 5.4 nM and the “ratio IC50 hV2/hV1a” value (human V1a receptor) was 45.4.
In the case of `Cl.O=C(NC(Cn1c(-c2ccc(Cl)cc2)nn(Cc2ncn(-c3ncccc3C(F)(F)F)n2)c1=O)C(F)(F)F)C1NCC1(F)F` (stereo not drawn) [Example 69, N-{3-[3-(4-Chlorophenyl)-5-oxo-1-({1-[3-(trifluoromethyl)pyridin-2-yl]-1H-1,2,4-triazol-3-yl}methyl)-1,5-dihydro-4H-1,2,4-triazol-4-yl]-1,1,1-trifluoropropan-2-yl}-3,3-difluoroazetidine-2-carboxamide], the IC50 (human V2 receptor) is reported as 101 nM, the IC50 (human V1a receptor) is reported as 1.95 nM and the “ratio IC50 hV2/hV1a” value (human V1a receptor) is reported as 51.8.
In the case of `Cl.O=C(NC(Cn1c(-c2ccc(Cl)cc2)nn(Cc2ncn(-c3ncccc3C(F)(F)F)n2)c1=O)C(F)(F)F)[C@@H]1C[C@@H](F)CN1` (stereo partly drawn) [Example 70, N-{3-[3-(4-Chlorophenyl)-5-oxo-1-({1-[3-(trifluoromethyl)pyridin-2-yl]-1H-1,2,4-triazol-3-yl}methyl)-1,5-dihydro-4H-1,2,4-triazol-4-yl]-1,1,1-trifluoropropan-2-yl}-4-fluoro-L-prolinamide], the IC50 (human V2 receptor) is reported as 445 nM, the IC50 (human V1a receptor) is reported as 6.35 nM and the “ratio IC50 hV2/hV1a” value (human V1a receptor) is reported as 70.1.
With `Cl.O=C(NC(Cn1c(-c2ccc(Cl)cc2)nn(Cc2ncn(-c3ncccc3C(F)(F)F)n2)c1=O)C(F)(F)F)[C@@H]1C[C@H](F)CN1` (stereo partly drawn) [Example 71, N-{3-[3-(4-Chlorophenyl)-5-oxo-1-({1-[3-(trifluoromethyl)pyridin-2-yl]-1H-1,2,4-triazol-3-yl}methyl)-1,5-dihydro-4H-1,2,4-triazol-4-yl]-1,1,1-trifluoropropan-2-yl}-4-fluoro-L-prolinamide] the IC50 (human V2 receptor) was 275 nM, the IC50 (human V1a receptor) was 4.9 nM and the “ratio IC50 hV2/hV1a” value (human V1a receptor) was 56.1.
